What all share (experiment): NCI tumour cell line growth inhibition, 48 h
For assay [1], the system named is MOLT-4 leukemia.
Assay [2] deals with OVCAR-4 ovarian.
Assay [3] deals with SF-268 CNS.
The subject of assay [4] is MALME-3M melanoma.
Assay [5] has as its system RXF 393 renal.
Assay [6] deals with SK-OV-3 ovarian.
The test system of assay [7] is MDA-MB-231 breast.
The subject of assay [8] is SW-620 colon.
Assay [9] concerns LOX IMVI melanoma.
Assay [10] relates to SR leukemia.

Each structure is given as a SMILES string.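 Briefly, cells in 96-well plates were exposed to five compound concentrations for 48 h, and endpoints were estimated by linear interpolation. GI50 is the concentration that inhibits growth by half. TGI denotes the concentration required for complete inhibition of growth.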 Where a SMILES comes first, the peptide text is derived from it. [ ]: non-standard residue; d: D form. The star is where a group is joined. ξ: configuration not given here. ξF = NC(Cc1ccccc1)C(=O)O; Cbz = O=C(OCc1ccccc1)*; Aib = CC(C)(N)C(=O)O

Regarding `COc1cc(Nc2nnc3n2S(=O)(=O)c2cc(C)c(Cl)cc2S3)cc(OC)c1`, the TGI came out at 60.9 µM in [1]; 24.4 µM in assay [2]; 50.7 µM in assay [3]; 23.1 µM in [4]; 49.3 µM in [5]; 31.4 µM in [6]. Also, the TGI in [7] worked out at 74.5 µM.
Consider `C(=N\OCCc1ccccc1)/c1cccnc1`, for which the TGI in assay [1], in [2], in [8], in assay [3], in assay [4] and in assay [5] was above 100 µM in each case. In addition, the TGI in [6] and in assay [7] was above 100 µM each time.
For `COC(=O)C(C)(C)NC(=O)C(Cc1ccccc1)NC(=O)C(C)(C)NC(=O)OCc1ccccc1` (stereo unspecified) (Cbz-[Aib]-[ξF]-[Aib]-OMe), the TGI in [1], in assay [2], in [9], in [8], in assay [3] and in assay [4] was above 100 µM throughout. The TGI in [6] and in assay [7] was above 100 µM throughout.
With `Cc1ccc(C(O)(c2ccc(C)cc2)c2ccccn2)cc1`, the TGI in assay [2], in assay [9], in assay [8], in assay [3], in [4] and in assay [6] was above 100 µM throughout.
Regarding `CC(C)(C)c1cc(OCc2nnc3sc(=S)[nH]n23)c(Cl)cc1OCc1nnc2sc(=S)[nH]n12`, the TGI in assay [1] was above 100 µM; in assay [2], 80.6 µM; in assay [9], 34.2 µM; in [8], above 100 µM; in assay [3], above 100 µM; in assay [4], 46.9 µM. Further, the TGI in assay [5] was 69.1 µM; in assay [6], above 100 µM; in [10], 50.8 µM; in assay [7], above 100 µM.
Consider `COc1cc(-c2n/c(=C\c3c(O)[nH]c4cc(Cl)ccc34)cc3c2=Nc2ccccc2-3)cc(OC)c1OC`, for which the GI50 in [1] is 2.72 µM; in [2], 2.59 µM; in assay [9], 2.76 µM; in assay [8] it was 4.07 µM; in assay [3], 2.72 µM; in [4], 2.98 µM. In addition, the GI50 was 2.37 µM in assay [5], 3.8 µM in assay [6], 2.38 µM in [10] and 3.17 µM in assay [7]. In addition, the TGI was 8.35 µM in assay [1]; 6.36 µM in assay [2]; 16 µM in assay [9]; 54.9 µM in [8]; 10.5 µM in assay [3]; 9.41 µM in [4]. For the same molecule, the TGI in [5] stood at 7.34 µM; in assay [6], 11.3 µM; in assay [10] it was 6.35 µM; in assay [7] it was 11.3 µM.
For the molecule `COC1=CC(=O)c2c(c(COP(=O)(N(C)CCBr)N(C)CCBr)cn2C)C1=O`, the TGI in [1] is above 100 µM; in assay [2], 3 µM; in assay [9], 3.56 µM; in [8], 0.317 µM; in assay [3], 1.75 µM; in [4], 0.291 µM. Further, the values for the TGI in assay [5], in [6] and in [7] were 0.289 µM, 1.88 µM and 1.07 µM, respectively.
For the molecule `Nc1nc2ccc(OCC(O)CN3CCCCC3)cc2[n+]([O-])n1` (stereo unspecified), the TGI in assay [1], in [2], in assay [8], in assay [4], in assay [5] and in [10] was above 100 µM each time. In [7], this molecule yielded a TGI above 100 µM.
For `CCOc1ccc(N=NS(=O)(=O)O)cc1`, the TGI in assay [2], in assay [9], in assay [8], in assay [3], in assay [4] and in [5] was above 100 µM throughout. Moreover, the TGI in assay [6], in assay [10] and in assay [7] was above 100 µM in each case.
For the molecule `Nc1c(-c2ccccc2[N+](=O)[O-])nc2ccccn12`, the TGI in assay [1], in assay [9], in assay [8], in assay [3], in [4] and in assay [5] was above 100 µM each time. The TGI in assay [6] and in [10] was above 100 µM throughout.
Turning to `Clc1ccc(-c2ccc(-c3nnc(COc4ccc(OCc5nnc(-c6ccc(-c7ccc(Cl)cc7Cl)o6)o5)c(Cl)c4)o3)o2)c(Cl)c1`, the TGI in assay [1] is 64.2 µM; in assay [2], above 100 µM; in assay [9], above 100 µM; in [8], above 100 µM; in assay [3], above 100 µM; in [5], 73.2 µM. Moreover, the TGI in [10] was 74.8 µM; in [7], above 100 µM.
`CCCCOCc1cc(CN2CCN(C)CC2)c(O)c2ncccc12`: the TGI is 77.2 µM in assay [1]; above 100 µM in [2]; above 100 µM in [9]; 81.4 µM in assay [8]; above 100 µM in [3]; above 100 µM in assay [4]. For the same molecule, the TGI in assay [5] is above 100 µM; in assay [6], above 100 µM; in assay [10], 33.2 µM.
With `Cc1ccc(N2CCN(CCC(=O)O)CC2)cc1`, the TGI in [2], in assay [9], in assay [8], in [3], in assay [4] and in assay [5] was above 100 µM each time. In addition, the TGI in [6], in [10] and in [7] was above 100 µM throughout.
For `C[CH2][Ge]([CH2]C)([CH2]C)[O]C(=O)CCC(=O)[O][Ge]([CH2]C)([CH2]C)[CH2]C`, the GI50 in assay [1] is 39 µM; in [2], above 100 µM; in assay [9] it was 58 µM; in assay [8] it was above 100 µM; in [3], above 100 µM; in assay [4], 79.3 µM. The GI50 in assay [5] is above 100 µM; in assay [6] it was above 100 µM; in [10], 40.3 µM. The TGI in [1], in [2], in [9], in assay [8], in assay [3] and in [4] was above 100 µM each time. In addition, the TGI in [5], in [6] and in assay [10] was above 100 µM each time.
For the molecule `CC(C)(CCCCC(C)(C)C1NC(=O)N1)C1NC(=O)N1`, the TGI in assay [1], in assay [2], in [9], in assay [8], in assay [3] and in assay [4] was above 10 µM throughout. For the same molecule, the TGI in assay [5], in assay [6] and in assay [7] was above 10 µM each time.
For `CC(C)CC(NC(=O)C(Cc1ccccc1)NC(=O)C(Cc1c[nH]c2ccccc12)NC(=O)CNC(=O)C(N)Cc1ccc(O)cc1)C(=O)O` (stereo unspecified) (H-YGWFL-OH; configuration not given here), the TGI in assay [1] is above 100 µM; in assay [2], above 100 µM; in assay [3], above 100 µM; in assay [4], 72.3 µM; in assay [5] it was above 100 µM; in assay [6] it was above 100 µM. The TGI in assay [10] and in assay [7] was above 100 µM in each case.
As for `CCOC(=O)CCC(NC(=O)OCc1ccccc1)C(=O)NC(CCC(=O)OCC)C(=O)NNC(=O)OC(C)(C)C` (stereo unspecified), the TGI in [1], in assay [4], in assay [5], in assay [6] and in assay [10] was above 100 µM in each case.
`COc1cc(S(=O)(=O)Nc2ccc(-c3csc(N4C(=O)C(Cl)C4c4ccccc4)n3)cc2)ccc1Cl` (stereo unspecified): the TGI is above 100 µM in assay [1]; 87.3 µM in assay [2]; above 100 µM in [8]; above 100 µM in assay [3]; 49 µM in [4]; 23.1 µM in assay [5]. For the same molecule, the TGI in assay [6] and in [10] was above 100 µM in each case.
